Results on 1 compound are retold here after ChEMBL document CHEMBL5321270, “Discovery of Pyrazolone Carbothioamide Derivatives as Inhibitors of the Pdr1-KIX Interaction for Combinational Treatment of Azole-Resistant Candidiasis” (J Med Chem, 2023).

Data set [1] is described as follows: Tmax in ICR mouse at 2 mg/kg,iv measured upto 24 hrs by LC-MS/MS analysis. The class given is ADME, organism-based. As to conditions: in vivo.
The subject of data set [2] is Nakaseomyces glabratus. The experiment in a line: Antifungal activity against fluconazole-resistant Candida glabrata 8535 assessed as fungal growth inhibition incubated for 48 hrs by microplate reader assay. The class given is functional.
Data set [3] relates to Nakaseomyces glabratus. In words: Synergistic antifungal activity against fluconazole-resistant Candida glabrata 0161 assessed as fractional inhibitory concentration index incubated for 48 hrs in presence of fluconazole by checkerboard microdilution method. The class given is functional. (In general: Dilution methods test growth across graded concentrations, often in twofold steps.)

For data set [4], the system named is Aspergillus fumigatus. In words: Antifungal activity against Aspergillus fumigatus 7544 assessed as fungal growth inhibition incubated for 48 hrs by microplate reader assay. The class given is functional.
Data set [5] concerns Nakaseomyces glabratus. In words: Synergistic antifungal activity against fluconazole-resistant Candida glabrata 0161 assessed as inhibition of Rhodamine 6G efflux at 1 to 8 ug/ml incubated for 25 hrs in presence of fluconazole by Rhodamine 6G staining based fluorescence assay. The class given is functional, organism-based. As to conditions: dose 1-8 µg/ml.
Data set [6] concerns Nakaseomyces glabratus. In words: Antifungal activity against fluconazole-resistant Candida glabrata 0161 assessed as fungal growth inhibition incubated for 48 hrs by microplate reader assay. The class given is functional.
The test system of data set [7] is Nakaseomyces glabratus. The experiment in a line: Antifungal activity against FLC-resistant Candida glabrata 0161 infected in cyclophosphamide immunosuppressed ICR mouse model assessed as pathological change in kidney at 5 mg/kg,ip administrated for 5 days by Hematoxylin and eosin staining based analysis. The class given is functional, organism-based. The conditions noted are these: time 5.0 day.

The nature of data set [8]: Oral bioavailability in ICR mouse at 10 mg/kg measured upto 24 hrs by LC-MS/MS analysis. The class given is ADME, organism-based. The conditions noted are these: in vivo.
The subject of data set [9] is Nakaseomyces glabratus. The experiment in a line: Antifungal activity against fluconazole-resistant Candida glabrata 0161 assessed as fluconazole fractional inhibitory concentration incubated for 48 hrs in presence of fluconazole by microplate reader assay. The class given is functional.
Data set [10] has as its system Candida parapsilosis. In words: Antifungal activity against Candida parapsilosis 20090 assessed as fungal growth inhibition incubated for 48 hrs by microplate reader assay. The class given is functional. As to conditions: Lodderomyces parapsilosis.
In data set [11] the test system is Nakaseomyces glabratus. The experiment in a line: Antifungal activity against fluconazole-resistant Candida glabrata 0161 assessed as inhibition of fungal biofilm formation at 32 ug/ml incubated for 24 hrs by XXT reduction menadione assay. The class given is functional.
Data set [12] concerns [Candida] auris. In words: Antifungal activity against Candida auris 0030 assessed as fungal growth inhibition incubated for 48 hrs by microplate reader assay. The class given is functional. The conditions noted are these: Candidozyma auris.

SMILES strings stand for the structures. ≈ marks a conversion by molar mass, not a printed value. Calls of active or inactive are those of the source. No cut-off for these calls is given here.

A word on the Tmax: it is the time from dosing to the highest level. The term MIC denotes the least concentration at which growth counts as inhibited. One may read the bioavailability as dose-corrected exposure relative to a reference, in per cent. Lower therefore signals little systemic uptake. For orientation: inhibition means the share of the control response that was lost under treatment.

As for `Nc1cc(=O)n(C(=S)Nc2ccc3c(c2)CCC3)[nH]1`, the Tmax in data set [1] is 4.8 min. The minimum inhibitory concentration (MIC) was 0.25 µg/mL (≈ 0.911 µM) in data set [2]; 16 µg/mL (≈ 58.3 µM) in data set [4]; 0.25 µg/mL (≈ 0.911 µM) in data set [6]; 4 µg/mL (≈ 14.6 µM) in data set [10]; 2 µg/mL (≈ 7.29 µM) in data set [12]. Also, the “fractional inhibitory concentration index (FICI)” value in [3] came out at 0.28. Also, the outcome in data set [5] and in [7] was Active. In data set [8], this compound registered a bioavailability of 15.9%. In data set [9], the “fluconazole MIC in combination” value stood at 1 µg/mL. For the same compound, the inhibition at 32 µg/mL in data set [11] stood at 40%.
